Values joined by “and” are separate entries in the source; they are usually repeats but may differ in a detail not shown here. Equal entries are not always repeated.
Tests used:
[1] = microbe, parasite or virus in culture; settings: Mycobacterium tuberculosis, 72 h, read-out: pIC50 (converted)
[2] = microbe, parasite or virus in culture; settings: Mycobacterium tuberculosis, 96 h, read-out: pIC50 (converted)
[3] = In vitro enzyme assay to detect hydrolysis of chlorophenol red-beta-D-[…] directly proportional to the number of Toxoplasma stably expressing beta-galactosidase; type: functional, organism-based, Toxoplasma gondii; settings: for IC50: Toxoplasma gondii

Molecule NCCC1CSc2ccccc2O1 (stereo not given) has an IC50 [1] of 129 µM, an IC50 [2] of 170 µM and an IC50 [3] of over 50.1 µM.
For CCn1nc(C)c2nc(C(C)C)nc(NCC(C)C)c21, the IC50 [1] was 47.1 µM, the IC50 [2] was 49.2 µM and the IC50 [3] was 25.4 µM.
Work on CC(C)(N)CN1CCN(c2cccc(Cl)c2)CC1 yielded an IC50 [1] of 98.6 µM, an IC50 [2] of 474 µM and an IC50 [3] of over 50.1 µM.
With Fc1cccc(-c2cccc(N3CCC(NC4CCCOC4)CC3)c2)c1 (stereo not given) the IC50 [1] was 27.4 µM, the IC50 [2] was 30.8 µM and the IC50 [3] was 26.2 µM.
In the case of COc1ccc(CCN)c(OC)c1, the IC50 [1] is reported as 46.8 µM, the IC50 [2] is reported as 91.2 µM and the IC50 [3] is reported as over 50.1 µM.
Nc1nnc(SCc2ccc(Cl)s2)[nH]1 showed an IC50 [1] of 307 µM, an IC50 [2] of 313 µM and an IC50 [3] of over 50.1 µM.
CN(C)C(=O)Nc1cc(F)cc(F)c1 gave an IC50 [1] of 30.2 µM, an IC50 [2] of 30.6 µM and an IC50 [3] of 2.1 µM.
CCOC(=O)C(O)c1cc(Br)c2c(c1)OCO2 (stereo not given) showed an IC50 [1] of 223 µM, an IC50 [2] of over 501 µM and an IC50 [3] of over 50.1 µM.
CCn1cc(CN(C)S(=O)(=O)c2ccc(C(C)C)cc2)cn1 showed an IC50 [1] of 46.8 µM, an IC50 [2] of 48.5 µM and an IC50 [3] of over 50.1 µM.
Molecule CCCc1nc(NCCc2ccccc2)c2c(n1)c(C)nn2CC has an IC50 [1] of 48.8 µM, an IC50 [2] of 38.5 µM and a pIC50 [3] of 4.958. For the same molecule, the IC50 [3] was 9.84 µM.
For Nc1n[nH]c(SCc2ccc3c(c2)OCCO3)n1, the IC50 [1] was over 501 µM, the IC50 [2] was over 501 µM and the IC50 [3] was over 50.1 µM.
Work on Cc1cc(C(=O)N2CCN(c3nc4c(C(C)C)cccc4s3)CC2)on1 yielded an IC50 [1] of 21.3 µM, an IC50 [2] of 38.5 µM and an IC50 [3] of over 25.1 µM.
Work on COc1ccc(S(=O)(=O)N(C)C)cc1NCC1CC1 yielded an IC50 [1] of 299 µM, an IC50 [2] of over 501 µM and an IC50 [3] of over 50.1 µM.
With O=C(c1cc(C2CC2)n[nH]1)N1CCC2(CCCO2)CC1 the IC50 [1] was over 501 µM, the IC50 [2] was over 501 µM and the IC50 [3] was over 50.1 µM.
C=C/C=c1\c(=C/C)oc2c(NCc3ccccc3)nc(C)nc12 gave an IC50 [1] of 20.6 µM, an IC50 [2] of 12.1 µM and an IC50 [3] of 37.2 µM.
Work on C1CCC(COCCc2noc(C3CNC3)n2)C1 yielded an IC50 [1] of 96.5 µM, an IC50 [2] of over 501 µM and an IC50 [3] of 19.5 µM.
With COCCNc1nnc(SCc2ccc(Br)cn2)s1 the IC50 [1] was 276 µM, the IC50 [2] was over 501 µM and the IC50 [3] was over 50.1 µM.
Molecule Brc1ccc(NCc2ccc(Cn3ccnc3)cc2)nc1 has an IC50 [1] of 3.73 µM, an IC50 [2] of 4.63 µM and an IC50 [3] of 29.6 µM.
With OCCNCCNCc1ccc(-c2cccc(Cl)c2)o1 the IC50 [1] was 84.4 µM, the IC50 [2] was 253 µM and the IC50 [3] was over 25.1 µM.
OCc1cc2ccccc2nc1N1CCSCC1 showed an IC50 [1] of 238 µM, an IC50 [2] of 282 µM and an IC50 [3] of over 50.1 µM.
For NCCNC(=O)c1ccc(-c2ccc(Cl)cc2)s1, the IC50 [1] was 67.3 µM, the IC50 [2] was 103 µM and the IC50 [3] was over 25.1 µM.
Work on C(Cc1noc(C2CNC2)n1)OCC1CC1 yielded an IC50 [1] of 136 µM, an IC50 [2] of 352 µM and an IC50 [3] of 24.8 µM.
Molecule Cc1cc(C)c(C#N)c(N2C[C@H](C3CC3)[C@@H](N)C2)n1 has an IC50 [1] of 247 µM, an IC50 [2] of over 501 µM and an IC50 [3] of over 50.1 µM.
CC(C)c1ccc(C(CN)N2CCc3sccc3C2)cc1 (stereo not given) showed an IC50 [1] of 20.4 µM, an IC50 [2] of 24.8 µM and a pIC50 [3] of 5.076. The IC50 [3] was 13.4 µM.
In the case of c1ccc(COCCc2noc(C3CNC3)n2)cc1, the IC50 [1] is reported as 222 µM, the IC50 [2] is reported as 270 µM and the IC50 [3] is reported as 24.9 µM.
NCCc1ccc(-n2cccn2)cc1 gave an IC50 [1] of 188 µM, an IC50 [2] of 191 µM and an IC50 [3] of over 50.1 µM.
In the case of NC(CC1CCCC1)c1ccc(Oc2ccccc2)cc1 (stereo not given), the IC50 [1] is reported as 27.4 µM, the IC50 [2] is reported as 24.2 µM and the IC50 [3] is reported as 5.29 µM.
For Clc1cccc(-c2cccc(N3CCC(NC4CCOCC4)CC3)c2)c1, the IC50 [1] was 29.7 µM, the IC50 [2] was 34.9 µM and the IC50 [3] was 14.4 µM.
In the case of Cc1cc(NC(=O)C(C)C)n(-c2nc(C)c(C)c(=O)[nH]2)n1, the IC50 [1] is reported as 4.11 µM, the IC50 [2] is reported as 9.46 µM and the pIC50 [3] is reported as 5.713. It also gave an IC50 [3] of 1.51 µM.
CCCn1c(N2CCCC(C)C2)nc2c(C)nn(C)c2c1=O (stereo not given) showed an IC50 [2] of over 50.1 µM, a pIC50 [3] of 4.506 and an IC50 [3] of 22.2 µM.
With c1ccc(C2CNCCCO2)cc1 (stereo not given) the IC50 [1] was 166 µM, the IC50 [2] was 306 µM and the IC50 [3] was over 50.1 µM.
O=C(CN1CCC=C(F)C1)Nc1cccc(F)c1 gave an IC50 [1] of 300 µM, an IC50 [2] of 278 µM and an IC50 [3] of over 50.1 µM.
C=C/C=c1\c(=C/C)oc2c(NCc3ccccc3)nc(CC)nc12 showed an IC50 [1] of 22 µM, an IC50 [2] of 19.1 µM and an IC50 [3] of 37.5 µM.
In the case of CCCS(=O)(=O)NCC(O)C1CCCC1 (stereo not given), the IC50 [1] is reported as 294 µM, the IC50 [2] is reported as 268 µM and the IC50 [3] is reported as over 50.1 µM.
Molecule COc1cccc(N2CCNCC2C)c1 (stereo not given) has an IC50 [1] of over 501 µM, an IC50 [2] of over 501 µM and an IC50 [3] of over 50.1 µM.
With Nc1nc(N)nc(CN2CCCC2c2cccs2)n1 (stereo not given) the IC50 [1] was 171 µM, the IC50 [2] was over 501 µM and the IC50 [3] was over 50.1 µM.
In the case of Cc1ccc(F)cc1S(=O)(=O)N1C[C@H](C2CC2)[C@@H](N)C1, the IC50 [1] is reported as 259 µM, the IC50 [2] is reported as over 501 µM and the IC50 [3] is reported as over 50.1 µM.
Work on CC1CCN(C(=O)CSc2nncs2)CC1 yielded an IC50 [1] of 22.7 µM, an IC50 [2] of 23.8 µM and an IC50 [3] of over 50.1 µM.
Work on NCc1cccc(-c2ccccn2)n1 yielded an IC50 [1] of 109 µM, an IC50 [2] of 97.6 µM and an IC50 [3] of 12.4 µM.
For Cc1cccc(OCCc2noc(C3CNC3)n2)c1, the IC50 [1] was 89.2 µM, the IC50 [2] was 163 µM and the IC50 [3] was 8.49 µM.
With CCC(C#N)NC(=O)c1cnc(OC(C)C)c(Cl)c1 (stereo not given) the IC50 [1] was 131 µM, the IC50 [2] was 291 µM and the IC50 [3] was over 50.1 µM.
In the case of Cc1cc(C)n(-c2nc(NCCCO)c3c4c(sc3n2)CCCC4)n1, the IC50 [1] is reported as 45.4 µM, the IC50 [2] is reported as 41.8 µM and the pIC50 [3] is reported as 5.989 and 5.533.
With CCC(=O)c1nccn1C the IC50 [3] was over 50.1 µM.
Molecule Cn1cccc1C(=O)N1C[C@@H](OCc2ccncc2)[C@@H]2OCCC[C@@H]21 has an IC50 [3] of over 50.1 µM.
In the case of Cc1ccc(CN(C)C(=O)Cn2cnnn2)o1, the IC50 [3] is reported as over 50.1 µM.
In the case of CC(C)CC1NCCNC1=O (stereo not given), the IC50 [3] is reported as over 50.1 µM.
Fc1cnc(N2CCO[C@H]3CN(CC4CCCCC4)C[C@H]32)nc1 showed an IC50 [3] of over 50.1 µM.
With O=C(N1CCCC1)N1C[C@H]2CCC[C@@]2(COCc2ccccn2)C1 the IC50 [3] was over 50.1 µM.
Work on Cc1ccc([C@]2(O)CC[C@H]3CN(Cc4cccc(Cl)c4Cl)C[C@H]32)nc1 yielded an IC50 [3] of 8.76 µM.
N#Cc1ccccc1NC(=O)CCN1CCCC(O)C1 (stereo not given) showed an IC50 [3] of over 50.1 µM.
With Cc1cnc(NC(=O)c2cccc(CN(C)Cc3ncccc3C)c2)s1 the IC50 [3] was 13.6 µM.
With CS(=O)(=O)c1ccc(-c2cc(O)cc(CCC3CCCCN3)c2)cc1 (stereo not given) the IC50 [3] was 16.6 µM.
In the case of Cc1nn(C)c2c(N(C)Cc3ccco3)nc(C3CC3)nc12, the IC50 [3] is reported as 11.8 µM.

Source: ChEMBL document CHEMBL3988442, “University of Dundee, Small-Polar-MMV Screening Library” (2021)
